The source made the active and inactive calls. No cut-off for these calls is given here.
Experiments:
[1] = tested on: K562; assay: Induction of apoptosis in human K562 cells assessed as increase in cleaved caspase 9 gene expression at 3 to 12 uM after 48 hrs by SYBR green dye-based qRT-PCR analysis; assay type: functional, cell-based; details: dose 3-12 µM
[2] = tested on: K562; assay: Induction of apoptosis in human K562 cells assessed as increase in cytochrome c protein expression after 48 hrs by Western blot analysis; assay type: functional, cell-based; details: dose 3-12 µM
[3] = tested on: K562; assay: Induction of apoptosis in human K562 cells assessed as increase in number of broken cells at 3 to 12 uM incubated for 48 hrs by light microscopic analysis; assay type: functional, cell-based; details: dose 3-12 µM
[4] = tested on: K562; assay: Induction of apoptosis in human K562 cells assessed as decrease in cell density at 3 to 12 uM incubated for 48 hrs by light microscopic analysis; assay type: functional, cell-based; details: dose 3-12 µM
[5] = tested on: MKN-45; assay: Cytotoxicity against human MNK45 cells assessed as inhibition of cell growth incubated for 48 hrs by CCK-8 assay; assay type: functional, cell-based; details: MKN-45, 48 h
[6] = tested on: K562; assay: Potency index, ratio of 5-FU IC50 to test compound IC50 for cytotoxicity against human K562 cells assessed as inhibition of cell growth incubated for 48 hrs by CCK-8 assay; assay type: functional
[7] = tested on: K562; assay: Induction of mitochondrial membrane potential loss in human K562 cells assessed as cell population with intact mitochondrial membrane potential at 6 uM after 48 hrs by JC1 dye-based flow cytometry analysis (reference value: 96.48%); assay type: functional
[8] = tested on: K562; assay: Induction of ROS generation in human K562 cells at 3 uM incubated for 48 hrs by DCFH-DA staining-based flow cytometry (reference value: 3.68 %); assay type: functional
[9] = tested on: K562; assay: Induction of apoptosis in human K562 cells assessed as increase in cleaved caspase 3 gene expression at 3 to 12 uM after 48 hrs by SYBR green dye-based qRT-PCR analysis; assay type: functional, cell-based; details: dose 3-12 µM
[10] = tested on: K562; assay: Induction of mitochondrial membrane potential loss in human K562 cells assessed as cell population with mitochondrial membrane potential collapse at 3 uM after 48 hrs by JC1 dye-based flow cytometry analysis (reference value: 2.75%); assay type: functional
[11] = tested on: K562; assay: Induction of apoptosis in human K562 cells assessed as late apoptotic cells at 6 uM incubated for 48 hrs by annexin V-FITC/PI staining based flow cytometry (reference value: 0.11 %); assay type: functional
[12] = tested on: HepG2; assay: Cytotoxicity against human HepG2 cells assessed as inhibition of cell growth incubated for 48 hrs by CCK-8 assay; assay type: functional, cell-based; details: HepG2, 48 h
[13] = tested on: K562; assay: Cytotoxicity against human K562 cells assessed as inhibition of cell growth incubated for 48 hrs by CCK-8 assay; assay type: functional, cell-based; details: K562, 48 h
[14] = tested on: K562; assay: Induction of apoptosis in human K562 cells assessed as increase in Bax gene expression at 3 to 12 uM after 48 hrs by SYBR green dye-based qRT-PCR analysis; assay type: functional, cell-based; details: dose 3-12 µM
[15] = tested on: K562; assay: Induction of ROS generation in human K562 cells at 12 uM incubated for 48 hrs by DCFH-DA staining-based flow cytometry (reference value: 3.68 %); assay type: functional
[16] = tested on: K562; assay: Induction of mitochondrial membrane potential loss in human K562 cells assessed as cell population with intact mitochondrial membrane potential at 3 uM after 48 hrs by JC1 dye-based flow cytometry analysis (reference value: 96.48%); assay type: functional
[17] = tested on: K562; assay: Induction of apoptosis in human K562 cells assessed as increase in Bax protein expression at 3 to 12 uM after 48 hrs by Western blot analysis; assay type: functional, cell-based; details: dose 3-12 µM
[18] = tested on: K562; assay: Potency index, ratio of diosgenin IC50 to test compound IC50 for cytotoxicity against human K562 cells assessed as inhibition of cell growth incubated for 48 hrs by CCK-8 assay; assay type: functional
[19] = tested on: K562; assay: Induction of mitochondrial membrane potential loss in human K562 cells assessed as cell population with intact mitochondrial membrane potential at 12 uM after 48 hrs by JC1 dye-based flow cytometry analysis (reference value: 96.48%); assay type: functional
[20] = tested on: K562; assay: Induction of mitochondrial membrane potential loss in human K562 cells assessed as cell population with mitochondrial membrane potential collapse at 12 uM after 48 hrs by JC1 dye-based flow cytometry analysis (reference value: 2.75%); assay type: functional
[21] = tested on: A549; assay: Cytotoxicity against human A549 cells assessed as inhibition of cell growth incubated for 48 hrs by CCK-8 assay; assay type: functional, cell-based; details: A549, 48 h
[22] = tested on: K562; assay: Induction of apoptosis in human K562 cells assessed as early apoptotic cells at 3 uM incubated for 48 hrs by annexin V-FITC/PI staining based flow cytometry (reference value: 0.32 %); assay type: functional
[23] = tested on: K562; assay: Induction of apoptosis in human K562 cells assessed as late apoptotic cells at 12 uM incubated for 48 hrs by annexin V-FITC/PI staining based flow cytometry (reference value: 0.11 %); assay type: functional
[24] = tested on: K562; assay: Induction of apoptosis in human K562 cells assessed as decrease in Bcl-2 protein expression after 48 hrs by Western blot analysis; assay type: functional, cell-based; details: dose 3-12 µM
[25] = tested on: K562; assay: Induction of apoptosis in human K562 cells assessed as decrease in cell density at 3 to 12 uM incubated for 48 hrs by Hoechst 33342/PI staining based fluorescence microscopic analysis; assay type: functional; details: dose 3-12 µM
[26] = tested on: T-24; assay: Cytotoxicity against human T24 cells assessed as inhibition of cell growth incubated for 48 hrs by CCK-8 assay; assay type: functional, cell-based; details: T-24, 48 h
[27] = tested on: K562; assay: Induction of apoptosis in human K562 cells assessed as chromatin condensation at 3 to 12 uM incubated for 48 hrs by Hoechst 33342/PI staining based fluorescence microscopic analysis; assay type: functional, cell-based; details: dose 3-12 µM
[28] = tested on: MCF7; assay: Cytotoxicity against human MCF7 cells assessed as inhibition of cell growth incubated for 48 hrs by CCK-8 assay; assay type: functional, cell-based; details: MCF7, 48 h
[29] = tested on: K562; assay: Induction of mitochondrial membrane potential loss in human K562 cells assessed as cell population with mitochondrial membrane potential collapse at 6 uM after 48 hrs by JC1 dye-based flow cytometry analysis (reference value: 2.75%); assay type: functional
[30] = tested on: A549; assay: Potency index, ratio of diosgenin IC50 to test compound IC50 for cytotoxicity against human A549 cells assessed as inhibition of cell growth incubated for 48 hrs by CCK-8 assay; assay type: functional
[31] = tested on: K562; assay: Induction of apoptosis in human K562 cells assessed as increase in cleaved caspase 9 protein expression at 3 to 12 uM after 48 hrs by Western blot analysis; assay type: functional, cell-based; details: dose 3-12 µM
[32] = tested on: K562; assay: Induction of ROS generation in human K562 cells at 6 uM incubated for 48 hrs by DCFH-DA staining-based flow cytometry (reference value: 3.68 %); assay type: functional
[33] = tested on: K562; assay: Induction of apoptosis in human K562 cells assessed as increase in cleaved PARP protein expression at 3 to 12 uM after 48 hrs by Western blot analysis; assay type: functional, cell-based; details: dose 3-12 µM
[34] = tested on: K562; assay: Induction of apoptosis in human K562 cells assessed as nuclear fragmentation at 3 to 12 uM incubated for 48 hrs by Hoechst 33342/PI staining based fluorescence microscopic analysis; assay type: functional, cell-based; details: dose 3-12 µM
[35] = tested on: K562; assay: Induction of apoptosis in human K562 cells assessed as early apoptotic cells at 6 uM incubated for 48 hrs by annexin V-FITC/PI staining based flow cytometry (reference value: 0.32 %); assay type: functional
[36] = tested on: K562; assay: Induction of apoptosis in human K562 cells assessed as increase in cleaved PARP gene expression at 3 to 12 uM after 48 hrs by SYBR green dye-based qRT-PCR analysis; assay type: functional, cell-based; details: dose 3-12 µM
[37] = tested on: K562; assay: Induction of apoptosis in human K562 cells assessed as increase in cleaved caspase 3 protein expression at 3 to 12 uM after 48 hrs by Western blot analysis; assay type: functional, cell-based; details: dose 3-12 µM
[38] = tested on: K562; assay: Induction of apoptosis in human K562 cells assessed as early apoptotic cells at 12 uM incubated for 48 hrs by annexin V-FITC/PI staining based flow cytometry (reference value: 0.32 %); assay type: functional
[39] = tested on: K562; assay: Induction of apoptosis in human K562 cells assessed as decrease in Bcl-2 gene expression after 48 hrs by SYBR green dye-based qRT-PCR analysis; assay type: functional, cell-based; details: dose 3-12 µM
[40] = tested on: K562; assay: Induction of apoptosis in human K562 cells assessed as late apoptotic cells at 3 uM incubated for 48 hrs by annexin V-FITC/PI staining based flow cytometry (reference value: 0.11 %); assay type: functional
[41] = tested on: T-24; assay: Potency index, ratio of diosgenin IC50 to test compound IC50 for cytotoxicity against human T24 cells assessed as inhibition of cell growth incubated for 48 hrs by CCK-8 assay; assay type: functional
[42] = tested on: MKN-45; assay: Potency index, ratio of diosgenin IC50 to test compound IC50 for cytotoxicity against human MNK45 cells assessed as inhibition of cell growth incubated for 48 hrs by CCK-8 assay; assay type: functional

CC(=O)O[C@H]1CC[C@@]2(C)C(=CC[C@H]3[C@@H]4C[C@@H]5O[C@H](CC[C@@H](C)COC(=O)[C@@H](N)Cc6c[nH]c7ccccc67)[C@@H](C)[C@@H]5[C@@]4(C)CC[C@@H]32)C1
Activity [1]: Active
Activity [2]: Dose-Dependent Effect
Activity [3]: Active
Activity [4]: Active
IC50 [5]: 16.2 µM
Ratio IC50 [6]: 4.3
Activity [7]: 75.88%
Activity [8]: 16.85%
Activity [9]: Active
Activity [10]: 8.78%
Activity [11]: 14.13%
IC50 [12]: 12.7 µM
IC50 [13]: 4.41 µM
Activity [14]: Active
Activity [15]: 34.25%
Activity [16]: 90.01%
Activity [17]: Active
Ratio IC50 [18]: 6.8
Activity [19]: 27.71%
Activity [20]: 67.81%
IC50 [21]: 7.82 µM
Activity [22]: 4.78%
Activity [23]: 18.85%
Activity [24]: Dose-Dependent Effect
Activity [25]: Active
IC50 [26]: 6.34 µM
Activity [27]: Active
IC50 [28]: 11.3 µM
Activity [29]: 21.23%
Ratio IC50 [30]: 4.2
Activity [31]: Active
Activity [32]: 22.26%
Activity [33]: Active
Activity [34]: Active
Activity [35]: 11.42%
Activity [36]: Active
Activity [37]: Active
Activity [38]: 21.45%
Activity [39]: Dose-Dependent Effect
Activity [40]: 9.13%

CC(=O)O[C@H]1CC[C@@]2(C)C(=CC[C@H]3[C@@H]4C[C@@H]5O[C@H](CC[C@@H](C)COC(=O)[C@@H](N)C(C)C)[C@@H](C)[C@@H]5[C@@]4(C)CC[C@@H]32)C1
IC50 [5]: 7.01 µM
IC50 [12]: 12.3 µM
IC50 [13]: 6.77 µM
IC50 [21]: 4.92 µM
IC50 [26]: 4.94 µM
IC50 [28]: 17.8 µM
Ratio IC50 [30]: 6.7

C[C@@H]1CC[C@@]2(OC1)O[C@H]1C[C@H]3[C@@H]4CC=C5C[C@@H](OC(=O)[C@@H](N)Cc6c[nH]c7ccccc67)CC[C@]5(C)[C@H]4CC[C@]3(C)[C@H]1[C@@H]2C
IC50 [5]: 5.21 µM
IC50 [12]: 17 µM
IC50 [13]: 8.47 µM
IC50 [21]: 12.9 µM
Ratio IC50 [41]: 4.1
IC50 [26]: 7.06 µM
IC50 [28]: 9.6 µM
Ratio IC50 [42]: 15

CC(=O)O[C@H]1CC[C@@]2(C)C(=CC[C@H]3[C@@H]4C[C@@H]5O[C@H](CC[C@@H](C)COC(=O)[C@@H](N)Cc6ccccc6)[C@@H](C)[C@@H]5[C@@]4(C)CC[C@@H]32)C1
IC50 [5]: > 30 µM
IC50 [12]: 18.8 µM
IC50 [13]: 15.8 µM
IC50 [21]: 27.2 µM
IC50 [26]: 8.22 µM
IC50 [28]: > 30 µM
